According to the kinase profiling compilation of Christmann-Franck et al. (2016):
Each block holds one molecule with its values, some of them ahead of it.

Assays:
Experiment in all cases: radiometric filter-binding kinase assay
[1] = tested on: AKT1 (human), P31749 [S473D]
[2] = target: AURKB (human) (UniProt Q96GD4)
[3] = target: CDK2 CCNA2 (human) (UniProt P20248+P24941)
[4] = target: CHEK1 (human) (UniProt O14757)
[5] = target: CHEK2 (human) (UniProt O96017)
[6] = target: CSK (human) (UniProt P41240)
[7] = target: CaMK1 (human) (UniProt Q14012)
[8] = target: DYRK3 (human) (UniProt O43781)
[9] = target: EPHA2 (human) (UniProt P29317)
[10] = target: EPHA4 (human) (UniProt P54764)
[11] = target: EPHB1 (human) (UniProt P54762)
[12] = target: EPHB2 (human) (UniProt P29323)
[13] = target: EPHB3 (human) (UniProt P54753)
[14] = target: GCK (human) (UniProt Q12851)
[15] = target: IKBKB (human) (UniProt O14920)
[16] = tested on: LCK (mouse); conditions: accession and sequence are those of the human protein
[17] = target: MAP2K1 (human) (UniProt Q02750)
Chain of MAP2K1 (human) (Q02750 whole entry, looked up): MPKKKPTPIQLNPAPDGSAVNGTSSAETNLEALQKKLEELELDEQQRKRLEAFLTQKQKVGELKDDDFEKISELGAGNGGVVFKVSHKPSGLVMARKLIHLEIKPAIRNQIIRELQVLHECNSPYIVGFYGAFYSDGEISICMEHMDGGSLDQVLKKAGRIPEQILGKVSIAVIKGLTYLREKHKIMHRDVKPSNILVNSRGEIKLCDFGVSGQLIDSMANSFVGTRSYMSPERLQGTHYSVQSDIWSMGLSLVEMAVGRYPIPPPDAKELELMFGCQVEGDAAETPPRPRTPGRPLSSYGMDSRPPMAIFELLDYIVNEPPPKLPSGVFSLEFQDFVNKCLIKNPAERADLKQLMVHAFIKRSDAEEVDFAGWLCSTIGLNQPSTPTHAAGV

[18] = target: MAP3K11 (human) (UniProt Q16584)
Chain of MAP3K11 (human) (Q16584 whole entry, looked up): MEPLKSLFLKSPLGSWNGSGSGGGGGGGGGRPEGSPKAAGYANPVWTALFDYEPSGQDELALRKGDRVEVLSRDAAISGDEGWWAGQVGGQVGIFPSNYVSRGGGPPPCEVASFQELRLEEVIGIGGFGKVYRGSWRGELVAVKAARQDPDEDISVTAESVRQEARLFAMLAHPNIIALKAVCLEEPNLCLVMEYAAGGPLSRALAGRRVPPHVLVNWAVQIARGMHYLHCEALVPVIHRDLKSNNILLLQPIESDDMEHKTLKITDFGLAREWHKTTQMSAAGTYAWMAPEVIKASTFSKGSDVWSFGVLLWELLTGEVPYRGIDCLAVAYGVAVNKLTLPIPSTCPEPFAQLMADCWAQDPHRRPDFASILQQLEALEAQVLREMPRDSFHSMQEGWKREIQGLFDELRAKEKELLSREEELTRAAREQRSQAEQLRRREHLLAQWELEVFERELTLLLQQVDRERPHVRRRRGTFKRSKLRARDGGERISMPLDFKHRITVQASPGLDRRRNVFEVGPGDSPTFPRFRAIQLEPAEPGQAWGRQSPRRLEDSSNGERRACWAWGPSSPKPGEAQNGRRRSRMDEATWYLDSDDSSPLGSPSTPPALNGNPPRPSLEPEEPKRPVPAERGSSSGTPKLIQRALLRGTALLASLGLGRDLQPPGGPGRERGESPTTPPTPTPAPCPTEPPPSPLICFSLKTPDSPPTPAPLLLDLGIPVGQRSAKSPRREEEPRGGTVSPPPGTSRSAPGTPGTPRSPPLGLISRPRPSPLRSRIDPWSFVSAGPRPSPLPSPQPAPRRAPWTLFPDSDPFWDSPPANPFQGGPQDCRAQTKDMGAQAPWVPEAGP

[19] = target: MAPK10 (human) (UniProt P53779)
[20] = target: MAPK8 (human) (UniProt P45983)
Chain of MAPK8 (human) (P45983 whole entry, looked up): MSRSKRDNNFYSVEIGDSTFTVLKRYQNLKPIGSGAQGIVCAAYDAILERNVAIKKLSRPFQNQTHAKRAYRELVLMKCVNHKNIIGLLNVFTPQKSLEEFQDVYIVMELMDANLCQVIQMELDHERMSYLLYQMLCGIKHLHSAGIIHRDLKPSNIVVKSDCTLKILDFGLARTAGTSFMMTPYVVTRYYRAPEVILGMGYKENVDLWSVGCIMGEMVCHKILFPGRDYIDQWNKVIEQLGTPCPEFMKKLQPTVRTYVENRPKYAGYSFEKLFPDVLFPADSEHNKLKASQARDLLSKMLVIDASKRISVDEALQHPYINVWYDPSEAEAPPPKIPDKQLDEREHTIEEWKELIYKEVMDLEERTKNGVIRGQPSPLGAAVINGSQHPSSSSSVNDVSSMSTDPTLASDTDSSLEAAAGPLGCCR

[21] = target: MARK2 (human) (UniProt Q7KZI7)
[22] = target: MINK1 (human) (UniProt Q8N4C8)
Chain of MINK1 (human) (Q8N4C8 whole entry, looked up): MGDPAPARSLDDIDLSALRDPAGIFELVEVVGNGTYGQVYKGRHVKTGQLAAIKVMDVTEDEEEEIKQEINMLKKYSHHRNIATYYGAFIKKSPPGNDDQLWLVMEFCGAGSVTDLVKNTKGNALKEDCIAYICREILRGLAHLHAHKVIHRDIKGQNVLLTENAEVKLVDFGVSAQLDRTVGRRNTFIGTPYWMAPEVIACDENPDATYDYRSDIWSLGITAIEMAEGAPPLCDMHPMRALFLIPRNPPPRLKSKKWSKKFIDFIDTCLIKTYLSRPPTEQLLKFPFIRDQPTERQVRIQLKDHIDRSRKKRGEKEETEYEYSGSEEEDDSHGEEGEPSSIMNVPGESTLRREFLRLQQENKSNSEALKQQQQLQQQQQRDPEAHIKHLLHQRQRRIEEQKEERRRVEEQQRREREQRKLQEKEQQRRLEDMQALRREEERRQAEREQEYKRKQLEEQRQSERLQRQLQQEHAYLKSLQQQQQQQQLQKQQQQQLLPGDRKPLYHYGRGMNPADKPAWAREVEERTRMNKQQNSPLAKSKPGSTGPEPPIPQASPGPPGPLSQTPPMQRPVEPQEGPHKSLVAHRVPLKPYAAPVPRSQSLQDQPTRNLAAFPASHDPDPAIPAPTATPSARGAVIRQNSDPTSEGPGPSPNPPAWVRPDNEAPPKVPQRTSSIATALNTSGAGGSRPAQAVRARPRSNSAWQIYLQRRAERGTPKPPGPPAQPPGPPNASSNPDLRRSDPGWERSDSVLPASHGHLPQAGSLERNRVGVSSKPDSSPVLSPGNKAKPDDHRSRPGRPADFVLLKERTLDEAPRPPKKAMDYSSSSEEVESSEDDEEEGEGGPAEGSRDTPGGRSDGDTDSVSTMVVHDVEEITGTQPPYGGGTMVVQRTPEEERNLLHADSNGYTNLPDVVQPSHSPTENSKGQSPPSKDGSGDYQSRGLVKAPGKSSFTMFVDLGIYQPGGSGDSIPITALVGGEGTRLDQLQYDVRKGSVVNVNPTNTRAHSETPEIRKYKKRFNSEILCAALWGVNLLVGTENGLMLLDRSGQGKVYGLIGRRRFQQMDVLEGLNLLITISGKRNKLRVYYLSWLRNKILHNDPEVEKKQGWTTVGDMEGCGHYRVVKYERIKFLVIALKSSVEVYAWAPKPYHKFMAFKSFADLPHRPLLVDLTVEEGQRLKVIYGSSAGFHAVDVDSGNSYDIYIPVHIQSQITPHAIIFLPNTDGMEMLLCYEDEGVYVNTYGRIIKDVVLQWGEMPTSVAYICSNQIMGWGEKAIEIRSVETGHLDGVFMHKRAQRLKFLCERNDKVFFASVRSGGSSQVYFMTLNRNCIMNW

[23] = target: MST4 (human) (UniProt Q9P289)
Chain of MST4 (human) (Q9P289 whole entry, looked up): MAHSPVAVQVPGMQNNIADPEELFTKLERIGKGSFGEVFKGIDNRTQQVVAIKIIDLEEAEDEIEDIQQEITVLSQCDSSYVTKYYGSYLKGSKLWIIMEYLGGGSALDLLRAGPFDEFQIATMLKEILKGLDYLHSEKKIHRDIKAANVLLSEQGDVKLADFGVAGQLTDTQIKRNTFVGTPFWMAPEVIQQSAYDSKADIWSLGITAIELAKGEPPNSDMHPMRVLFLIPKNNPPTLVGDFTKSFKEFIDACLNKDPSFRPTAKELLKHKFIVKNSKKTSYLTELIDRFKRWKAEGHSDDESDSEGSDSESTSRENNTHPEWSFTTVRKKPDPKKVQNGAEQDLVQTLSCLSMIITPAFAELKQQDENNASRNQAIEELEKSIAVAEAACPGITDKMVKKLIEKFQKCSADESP

[24] = target: MYLK (human) (UniProt Q15746)
[25] = target: NUAK1 (human) (UniProt O60285)
[26] = tested on: PAK2 (human), Q13177 [T402E]
[27] = target: PAK4 (human) (UniProt O96013)
Chain of PAK4 (human) (O96013 whole entry, looked up): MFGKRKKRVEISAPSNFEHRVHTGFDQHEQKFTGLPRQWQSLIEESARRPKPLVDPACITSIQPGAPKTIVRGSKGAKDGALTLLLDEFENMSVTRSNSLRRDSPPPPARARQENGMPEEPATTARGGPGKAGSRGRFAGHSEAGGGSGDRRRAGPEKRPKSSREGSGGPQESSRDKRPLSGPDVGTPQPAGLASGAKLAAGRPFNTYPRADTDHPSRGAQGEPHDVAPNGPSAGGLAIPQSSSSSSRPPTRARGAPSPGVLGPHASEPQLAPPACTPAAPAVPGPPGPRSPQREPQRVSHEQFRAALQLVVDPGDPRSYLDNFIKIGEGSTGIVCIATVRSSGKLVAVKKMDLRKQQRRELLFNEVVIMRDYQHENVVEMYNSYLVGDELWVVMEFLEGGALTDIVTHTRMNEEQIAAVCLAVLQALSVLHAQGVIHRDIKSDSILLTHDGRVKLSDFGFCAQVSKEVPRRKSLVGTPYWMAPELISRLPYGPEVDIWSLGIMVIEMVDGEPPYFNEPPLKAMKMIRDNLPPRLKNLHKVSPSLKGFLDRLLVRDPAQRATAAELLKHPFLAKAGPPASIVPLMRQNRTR

[28] = target: PAK6 (human) (UniProt Q9NQU5)
[29] = target: PKN2 (human) (UniProt Q16513)
[30] = tested on: ROCK2 (rat); conditions: accession and sequence are those of the human protein
[31] = target: RPS6KA3 KD1 KD2 (human) (UniProt P51812)
[32] = target: SRC (human) (UniProt P12931)
Chain of SRC (human) (P12931 whole entry, looked up): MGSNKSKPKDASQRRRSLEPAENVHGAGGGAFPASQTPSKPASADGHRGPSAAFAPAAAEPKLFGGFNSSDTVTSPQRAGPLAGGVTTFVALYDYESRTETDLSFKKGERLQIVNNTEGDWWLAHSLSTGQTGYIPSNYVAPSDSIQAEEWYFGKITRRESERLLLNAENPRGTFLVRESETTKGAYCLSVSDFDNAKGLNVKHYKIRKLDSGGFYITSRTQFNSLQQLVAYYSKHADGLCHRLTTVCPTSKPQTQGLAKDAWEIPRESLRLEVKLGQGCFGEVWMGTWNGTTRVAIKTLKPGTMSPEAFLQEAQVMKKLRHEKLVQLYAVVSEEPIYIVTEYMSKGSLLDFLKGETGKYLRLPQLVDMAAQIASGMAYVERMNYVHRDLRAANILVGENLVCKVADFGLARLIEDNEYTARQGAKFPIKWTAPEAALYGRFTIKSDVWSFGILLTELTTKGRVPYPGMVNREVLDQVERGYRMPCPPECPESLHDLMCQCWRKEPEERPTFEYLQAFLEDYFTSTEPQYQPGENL

[33] = target: TAOK1 (human) (UniProt Q7L7X3)
[34] = target: TBK1 (human) (UniProt Q9UHD2)
[35] = target: TTK (human) (UniProt P33981)
[36] = target: MAP3K7 TAB1 (human) (UniProt Q15750+O43318)

Chain of CHEK1 (human) (O14757 whole entry, looked up): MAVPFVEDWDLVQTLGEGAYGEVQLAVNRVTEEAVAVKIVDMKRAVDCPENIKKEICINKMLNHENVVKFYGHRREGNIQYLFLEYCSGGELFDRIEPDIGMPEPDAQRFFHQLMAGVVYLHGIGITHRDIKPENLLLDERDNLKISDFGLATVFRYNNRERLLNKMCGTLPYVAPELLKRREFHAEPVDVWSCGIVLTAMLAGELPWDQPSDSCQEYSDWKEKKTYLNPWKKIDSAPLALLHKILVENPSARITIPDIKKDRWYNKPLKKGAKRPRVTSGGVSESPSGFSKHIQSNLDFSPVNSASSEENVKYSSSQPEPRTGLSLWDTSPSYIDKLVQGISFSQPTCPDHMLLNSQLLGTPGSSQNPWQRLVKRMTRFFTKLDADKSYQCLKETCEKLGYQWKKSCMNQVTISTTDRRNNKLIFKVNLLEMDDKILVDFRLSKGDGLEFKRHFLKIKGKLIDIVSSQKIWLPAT

- residual activity ([1]; compound 1.0 µM): 108%
- residual activity ([1]; compound 10.0 µM): 102%
- residual activity ([2]; compound 1.0 µM): 93%
- residual activity ([2]; compound 10.0 µM): 87%
- residual activity ([3]; compound 1.0 µM): 103%
- residual activity ([3]; compound 10.0 µM): 97%
- residual activity ([4]; compound 1.0 µM): 97%
- residual activity ([4]; compound 10.0 µM): 90%
- residual activity ([5]; compound 1.0 µM): 119%
- residual activity ([5]; compound 10.0 µM): 97%
- residual activity ([6]; compound 1.0 µM): 98%
- residual activity ([6]; compound 10.0 µM): 87%
- residual activity ([7]; compound 1.0 µM): 98%
- residual activity ([7]; compound 10.0 µM): 81%
- residual activity ([8]; compound 1.0 µM): 103%
- residual activity ([8]; compound 10.0 µM): 93%
- residual activity ([9]; compound 1.0 µM): 113%
- residual activity ([9]; compound 10.0 µM): 111%
- residual activity ([10]; compound 1.0 µM): 106%
- residual activity ([10]; compound 10.0 µM): 99%
- residual activity ([11]; compound 10.0 µM): 104%
- residual activity ([12]; compound 1.0 µM): 120%
- residual activity ([12]; compound 10.0 µM): 109%
- residual activity ([13]; compound 1.0 µM): 96%
- residual activity ([13]; compound 10.0 µM): 112%
- residual activity ([14]; compound 1.0 µM): 106%
- residual activity ([14]; compound 10.0 µM): 108%
- residual activity ([15]; compound 1.0 µM): 87%
- residual activity ([15]; compound 10.0 µM): 88%
- residual activity ([16]; compound 1.0 µM): 96%
- residual activity ([16]; compound 10.0 µM): 102%
- residual activity ([17]; compound 1.0 µM): 77%
- residual activity ([17]; compound 10.0 µM): 65%
- residual activity ([18]; compound 1.0 µM): 108%
- residual activity ([18]; compound 10.0 µM): 98%
- residual activity ([19]; compound 1.0 µM): 83%
- residual activity ([19]; compound 10.0 µM): 86%
- residual activity ([20]; compound 1.0 µM): 85%
- residual activity ([20]; compound 10.0 µM): 87%
- residual activity ([21]; compound 1.0 µM): 104%
- residual activity ([21]; compound 10.0 µM): 102%
- residual activity ([22]; compound 1.0 µM): 106%
- residual activity ([22]; compound 10.0 µM): 108%
- residual activity ([23]; compound 1.0 µM): 105%
- residual activity ([23]; compound 10.0 µM): 102%
- residual activity ([24]; compound 1.0 µM): 102%
- residual activity ([24]; compound 10.0 µM): 89%
- residual activity ([25]; compound 1.0 µM): 115%
- residual activity ([25]; compound 10.0 µM): 100%
- residual activity ([26]; compound 1.0 µM): 101%
- residual activity ([26]; compound 10.0 µM): 100%
- residual activity ([27]; compound 1.0 µM): 101%
- residual activity ([27]; compound 10.0 µM): 89%
- residual activity ([28]; compound 1.0 µM): 106%
- residual activity ([28]; compound 10.0 µM): 96%
- residual activity ([29]; compound 1.0 µM): 121%
- residual activity ([29]; compound 10.0 µM): 91%
- residual activity ([30]; compound 1.0 µM): 94%
- residual activity ([30]; compound 10.0 µM): 84%
- residual activity ([31]; compound 1.0 µM): 98%
- residual activity ([31]; compound 10.0 µM): 94%
- residual activity ([32]; compound 1.0 µM): 123%
- residual activity ([32]; compound 10.0 µM): 102%
- residual activity ([33]; compound 1.0 µM): 118%
- residual activity ([33]; compound 10.0 µM): 100%
- residual activity ([34]; compound 1.0 µM): 99%
- residual activity ([34]; compound 10.0 µM): 91%
- residual activity ([35]; compound 1.0 µM): 73%
- residual activity ([35]; compound 10.0 µM): 76%
Structure (SMILES): Cc1ccc(=O)n(-c2ccccc2)c1

- residual activity ([1]; compound 10.0 µM): 79%
- residual activity ([2]; compound 10.0 µM): 102%
- residual activity ([3]; compound 10.0 µM): 110%
- residual activity ([4]; compound 10.0 µM): 164%
- residual activity ([5]; compound 10.0 µM): 92%
- residual activity ([7]; compound 10.0 µM): 102%
- residual activity ([8]; compound 10.0 µM): 55%
- residual activity ([9]; compound 10.0 µM): 90%
- residual activity ([10]; compound 10.0 µM): 75%
- residual activity ([11]; compound 10.0 µM): 85%
- residual activity ([12]; compound 10.0 µM): 81%
- residual activity ([13]; compound 10.0 µM): 100%
- residual activity ([14]; compound 10.0 µM): 96%
- residual activity ([15]; compound 10.0 µM): 108%
- residual activity ([16]; compound 10.0 µM): 121%
- residual activity ([17]; compound 10.0 µM): 29%
- residual activity ([18]; compound 10.0 µM): 100%
- residual activity ([36]; compound 10.0 µM): 102%
- residual activity ([19]; compound 10.0 µM): 79%
- residual activity ([20]; compound 10.0 µM): 117%
- residual activity ([22]; compound 10.0 µM): 73%
- residual activity ([23]; compound 10.0 µM): 87%
- residual activity ([24]; compound 10.0 µM): 109%
- residual activity ([26]; compound 10.0 µM): 91%
- residual activity ([27]; compound 10.0 µM): 55%
- residual activity ([28]; compound 10.0 µM): 133%
- residual activity ([29]; compound 10.0 µM): 105%
- residual activity ([30]; compound 10.0 µM): 91%
- residual activity ([31]; compound 10.0 µM): 37%
- residual activity ([33]; compound 10.0 µM): 126%
- residual activity ([34]; compound 10.0 µM): 100%
- residual activity ([35]; compound 10.0 µM): 90%
Structure (SMILES): CCOC(=O)c1ccc(N2NC(=O)/C(=C/c3ccc([N+](=O)[O-])o3)C2=O)cc1

- residual activity ([1]; compound 10.0 µM): 99%
- residual activity ([2]; compound 1.0 µM): 99%
- residual activity ([2]; compound 10.0 µM): 78%
- residual activity ([3]; compound 1.0 µM): 95%
- residual activity ([3]; compound 10.0 µM): 97%
- residual activity ([4]; compound 1.0 µM): 116%
- residual activity ([4]; compound 10.0 µM): 119%
- residual activity ([5]; compound 1.0 µM): 104%
- residual activity ([5]; compound 10.0 µM): 93%
- residual activity ([6]; compound 1.0 µM): 89%
- residual activity ([6]; compound 10.0 µM): 88%
- residual activity ([7]; compound 1.0 µM): 106%
- residual activity ([7]; compound 10.0 µM): 84%
- residual activity ([8]; compound 1.0 µM): 107%
- residual activity ([8]; compound 10.0 µM): 83%
- residual activity ([9]; compound 1.0 µM): 112%
- residual activity ([9]; compound 10.0 µM): 105%
- residual activity ([10]; compound 1.0 µM): 97%
- residual activity ([10]; compound 10.0 µM): 100%
- residual activity ([11]; compound 1.0 µM): 107%
- residual activity ([11]; compound 10.0 µM): 92%
- residual activity ([12]; compound 10.0 µM): 77%
- residual activity ([13]; compound 1.0 µM): 113%
- residual activity ([13]; compound 10.0 µM): 82%
- residual activity ([14]; compound 1.0 µM): 79%
- residual activity ([14]; compound 10.0 µM): 91%
- residual activity ([15]; compound 1.0 µM): 78%
- residual activity ([15]; compound 10.0 µM): 89%
- residual activity ([16]; compound 1.0 µM): 93%
- residual activity ([16]; compound 10.0 µM): 104%
- residual activity ([17]; compound 1.0 µM): 36%
- residual activity ([17]; compound 10.0 µM): 3%
- residual activity ([18]; compound 1.0 µM): 83%
- residual activity ([18]; compound 10.0 µM): 89%
- residual activity ([36]; compound 1.0 µM): 91%
- residual activity ([36]; compound 10.0 µM): 92%
- residual activity ([19]; compound 1.0 µM): 83%
- residual activity ([20]; compound 1.0 µM): 87%
- residual activity ([20]; compound 10.0 µM): 93%
- residual activity ([21]; compound 1.0 µM): 101%
- residual activity ([21]; compound 10.0 µM): 101%
- residual activity ([22]; compound 1.0 µM): 119%
- residual activity ([22]; compound 10.0 µM): 127%
- residual activity ([23]; compound 1.0 µM): 107%
- residual activity ([23]; compound 10.0 µM): 94%
- residual activity ([24]; compound 10.0 µM): 86%
- residual activity ([25]; compound 1.0 µM): 108%
- residual activity ([25]; compound 10.0 µM): 95%
- residual activity ([26]; compound 1.0 µM): 95%
- residual activity ([26]; compound 10.0 µM): 80%
- residual activity ([27]; compound 1.0 µM): 98%
- residual activity ([27]; compound 10.0 µM): 77%
- residual activity ([28]; compound 10.0 µM): 103%
- residual activity ([29]; compound 1.0 µM): 70%
- residual activity ([29]; compound 10.0 µM): 79%
- residual activity ([30]; compound 1.0 µM): 102%
- residual activity ([30]; compound 10.0 µM): 103%
- residual activity ([31]; compound 1.0 µM): 98%
- residual activity ([31]; compound 10.0 µM): 89%
- residual activity ([32]; compound 1.0 µM): 124%
- residual activity ([32]; compound 10.0 µM): 72%
- residual activity ([34]; compound 1.0 µM): 111%
- residual activity ([34]; compound 10.0 µM): 99%
- residual activity ([35]; compound 1.0 µM): 105%
- residual activity ([35]; compound 10.0 µM): 98%
Structure (SMILES): O=C(NOCC(O)CO)c1ccc(F)c(F)c1Nc1ccc(I)cc1Cl (stereo unspecified)
